Measured values: patent US7807625B2, “Anti-wrinkle composition” (Grant Industries, Inc, priority 2006, dated 2010)

System: type I collagen, normal human dermal fibroblasts
Assay: Collagen assay: type I collagen by sandwich ELISA in fibroblast culture-conditioned medium
Format: cell-based
Conditions: 4 days, LbGp 1.25 mg/ml and/or palmitoyl hexapeptide-6 0.20 mg/ml
Procedure: Normal human dermal fibroblasts (Cambrex, Walkersville, Md.) were seeded into a 96-well plate and grown to confluence. They were then challenged with several concentrations of the test samples for 4 days. The fibroblast culture-conditioned medium was harvested and tested for type I collagen by sandwich ELISA using affinity-purified antibodies. Magnesium ascorbyl phosphate (MAP) was tested along with the sample as a positive control.

palmitoyl hexapeptide-6 [Hydrophobic peptide alone]
Type I collagen Assay: 420
